Earlier results as cited in US8871744B2, “Compounds and methods for selectively targeting tumor-associated mucins” (B & G Partyers, LLC, priority 2010, dated 2014).

Legend:
[1] = system: NMuMG cells; details: NMuMG cells stimulated with TGF-β1
[2] = system: normal mammary epithelial cells
[3] = system: sialomucin complex/rat Muc4; details: transfected MEC, activated in fetal calf serum

SMILES | morphological changes associated with EMT [1] | phosphorylation of Smad2 [1] | epithelial to mesenchymal transition stimulated by TGF-β [2] | Muc4 protein expression [3]
NC(=O)c1ccc(-c2nc(-c3ccc4c(c3)OCO4)c(-c3ccccn3)[nH]2)cc1 [SB431542, 4-[4-(1,3-benzodioxol-5-yl)-5-(2-pyridinyl)-1H-imidazol-2-yl]benzamide] | inhibited | inhibited |  | 
CN[C@@H]1C[C@H]2O[C@@](C)([C@@H]1OC)n1c3ccccc3c3c4c(c5c6ccccc6n2c5c31)C(=O)NC4 [staurosporine] |  |  | abrogated | inhibited
